Tested on: MV-4-11 cells
Assay: Gene expression microarray analysis (Affymetrix PrimeView) and GSEA
Format: cell-based, human
Set-up: RFU PODN (11730768_x_at) / Fold change /veh PODN (11730768_x_at) / RFU LINC00158 (11744669_a_at) / Fold change /veh LINC00158 (11744669_a_at) / RFU DUSP10 (11751237_a_at) / Fold change /veh DUSP10 (11751237_a_at) / RFU ID3 (11757404_x_at) / Fold change /veh ID3 (11757404_x_at) / RFU PLEKHG5 (11737974_s_at) / Fold change /veh PLEKHG5 (11737974_s_at) / RFU LRRC4B (11730491_at) / Fold change /veh LRRC4B (11730491_at) / RFU GIMAP4 (11747438_a_at) / Fold change /veh GIMAP4 (11747438_a_at) / RFU KRT8 (11758183_x_at) / Fold change /veh KRT8 (11758183_x_at) / RFU CNN1 (11734310_a_at) / Fold change /veh CNN1 (11734310_a_at) / RFU VPS37D (11726825_at) / Fold change /veh VPS37D (11726825_at) / RFU C10orf10 (11716522_x_at) / Fold change /veh C10orf10 (11716522_x_at) / RFU KIR2DL2 /// KIR2DL4 /// KIR2DL5A /// KIR2DL5B /// KIR2DS1 /// KIR2DS2 /// KIR2DS3 /// KIR2DS4 /// KIR3DL3 /// KIR3DL3 /// KIR3DS1 (11738374_at) / Fold change /veh KIR2DL2 /// KIR2DL4 /// KIR2DL5A /// KIR2DL5B /// KIR2DS1 /// KIR2DS2 /// KIR2DS3 /// KIR2DS4 /// KIR3DL3 /// KIR3DL3 /// KIR3DS1 (11738374_at) / RFU C1QL1 (11718748_at) / Fold change /veh C1QL1 (11718748_at) / RFU TMPRSS4 (11747572_a_at) / Fold change /veh TMPRSS4 (11747572_a_at) / RFU HAMP (11756126_x_at) / Fold change /veh HAMP (11756126_x_at) / RFU RNFT2 (11725882_a_at) / Fold change /veh RNFT2 (11725882_a_at) / RFU NR4A2 (11747474_a_at) / Fold change /veh NR4A2 (11747474_a_at) / RFU ABCC12 (11746883_a_at) / Fold change /veh ABCC12 (11746883_a_at) / RFU TMEM136 (11760407_x_at) / Fold change /veh TMEM136 (11760407_x_at) / RFU CLDN22 /// WWC2 (11732394_at) / Fold change /veh CLDN22 /// WWC2 (11732394_at) / RFU HLA-DPB1 (11760878_x_at) / Fold change /veh HLA-DPB1 (11760878_x_at) / RFU SPINT1 (11716480_a_at) / Fold change /veh SPINT1 (11716480_a_at) / RFU GAP43 (11754022_s_at) / Fold change /veh GAP43 (11754022_s_at) / RFU A4GNT (11735810_at) / Fold change /veh A4GNT (11735810_at) / RFU PRB3 (11715151_x_at) / Fold change /veh PRB3 (11715151_x_at) / RFU TUBB4B (11761932_at) / Fold change /veh TUBB4B (11761932_at) / RFU CAPN14 (11732068_a_at) / Fold change /veh CAPN14 (11732068_a_at) / RFU TMCC2 (11721928_a_at) / Fold change /veh TMCC2 (11721928_a_at) / RFU IRGQ (11745062_a_at) / Fold change /veh IRGQ (11745062_a_at) / RFU FAM174B (11720279_a_at) / Fold change /veh FAM174B (11720279_a_at) / RFU TMPRSS4 (11748680_a_at) / Fold change /veh TMPRSS4 (11748680_a_at) / RFU FAM212B (11763350_a_at) / Fold change /veh FAM212B (11763350_a_at) / RFU PLEKHG5 (11743358_a_at) / Fold change /veh PLEKHG5 (11743358_a_at) / RFU ZSCAN30 (11745921_a_at) / Fold change /veh ZSCAN30 (11745921_a_at) / RFU CMKLR1 (11741424_a_at) / Fold change /veh CMKLR1 (11741424_a_at) / RFU LOC101060620 /// MAPK8IP1 (11723275_at) / Fold change /veh LOC101060620 /// MAPK8IP1 (11723275_at) / RFU SPTSSB (11747773_x_at) / Fold change /veh SPTSSB (11747773_x_at) / RFU PRSS12 (11739890_at) / Fold change /veh PRSS12 (11739890_at) / RFU BIN1 (11741810_x_at) / Fold change /veh BIN1 (11741810_x_at) / RFU WNT11 (11732464_a_at) / Fold change /veh WNT11 (11732464_a_at) / RFU C10orf10 (11716521_a_at) / Fold change /veh C10orf10 (11716521_a_at) / RFU C5orf56 (11738089_at) / Fold change /veh C5orf56 (11738089_at) / RFU CYB561 (11721691_x_at) / Fold change /veh CYB561 (11721691_x_at) / RFU ANKRD19P (11752326_a_at) / Fold change /veh ANKRD19P (11752326_a_at) / RFU OR2T12 /// OR2T33 /// OR2T8 (11738714_s_at) / Fold change /veh OR2T12 /// OR2T33 /// OR2T8 (11738714_s_at) / RFU VCAN (11748164_a_at) / Fold change /veh VCAN (11748164_a_at) / RFU JSRP1 (11732532_at) / Fold change /veh JSRP1 (11732532_at) / RFU KRTAP10-11 (11738290_x_at) / Fold change /veh KRTAP10-11 (11738290_x_at) / RFU MYO3A (11730013_a_at) / Fold change /veh MYO3A (11730013_a_at) / RFU EBF3 (11725865_a_at) / Fold change /veh EBF3 (11725865_a_at) / RFU CAMK2N1 (11719241_x_at) / Fold change /veh CAMK2N1 (11719241_x_at) / RFU C5orf56 (11738088_a_at) / Fold change /veh C5orf56 (11738088_a_at) / RFU OLFML3 (11715873_a_at) / Fold change /veh OLFML3 (11715873_a_at) / RFU LOC100653217 /// NTM (11731650_a_at) / Fold change /veh LOC100653217 /// NTM (11731650_a_at) / RFU MAPK11 (11762145_a_at) / Fold change /veh MAPK11 (11762145_a_at) / RFU FIZ1 (11724087_x_at) / Fold change /veh FIZ1 (11724087_x_at) / RFU OASL (11726364_x_at) / Fold change /veh OASL (11726364_x_at) / RFU SOX15 (11748057_x_at) / Fold change /veh SOX15 (11748057_x_at) / RFU CD79A (11719716_a_at) / Fold change /veh CD79A (11719716_a_at) / RFU HIST1H1D (11736915_at) / Fold change /veh HIST1H1D (11736915_at) / RFU CASKIN2 (11723855_a_at) / Fold change /veh CASKIN2 (11723855_a_at) / RFU LOC730098 (11760151_x_at) / Fold change /veh LOC730098 (11760151_x_at) / RFU OR4N2 (11742367_at) / Fold change /veh OR4N2 (11742367_at) / RFU PRRT2 (11749266_a_at) / Fold change /veh PRRT2 (11749266_a_at) / RFU SNX32 (11753110_a_at) / Fold change /veh SNX32 (11753110_a_at) / RFU CDHR5 (11726645_a_at) / Fold change /veh CDHR5 (11726645_a_at) / RFU RCAN1 (11760418_a_at) / Fold change /veh RCAN1 (11760418_a_at) / RFU FAM167A (11723789_a_at) / Fold change /veh FAM167A (11723789_a_at) / RFU FAM26E (11764081_at) / Fold change /veh FAM26E (11764081_at) / RFU ISYNA1 (11749810_s_at) / Fold change /veh ISYNA1 (11749810_s_at) / RFU ACY1 (11761880_at) / Fold change /veh ACY1 (11761880_at) / RFU 11764098_at / Fold change /veh 11764098_at / RFU SAMD14 (11745864_x_at) / Fold change /veh SAMD14 (11745864_x_at) / RFU NPB (11741838_a_at) / Fold change /veh NPB (11741838_a_at) / RFU TMPRSS6 (11731388_a_at) / Fold change /veh TMPRSS6 (11731388_a_at) / RFU KRTAP10-2 (11738614_at) / Fold change /veh KRTAP10-2 (11738614_at) / RFU ARHGAP8 /// PRR5-ARHGAP8 (11727945_x_at) / Fold change /veh ARHGAP8 /// PRR5-ARHGAP8 (11727945_x_at) / RFU KRTAP5-7 /// NADSYN1 (11734609_at) / Fold change /veh KRTAP5-7 /// NADSYN1 (11734609_at) / RFU RASL12 (11751679_a_at) / Fold change /veh RASL12 (11751679_a_at) / RFU CDKN2B (11736163_a_at) / Fold change /veh CDKN2B (11736163_a_at) / RFU PRF1 (11729649_at) / Fold change /veh PRF1 (11729649_at) / RFU, ZNF638 /// ZNF638-IT1 / Fold change vs veh, ZNF638 /// ZNF638-IT1 / RFU, PANK3 / Fold change vs veh, PANK3 / RFU, SH3YL1 / Fold change vs veh, SH3YL1 / RFU, ZEB2 / Fold change vs veh, ZEB2 / RFU, NRIP1 / Fold change vs veh, NRIP1 / RFU, PTTG1IP / Fold change vs veh, PTTG1IP / RFU, CAPN2 / Fold change vs veh, CAPN2 / RFU, MED14 / Fold change vs veh, MED14 / RFU, SNORA58 / Fold change vs veh, SNORA58 / RFU, C1orf63 / Fold change vs veh, C1orf63 / RFU, LRRFIP1 / Fold change vs veh, LRRFIP1 / RFU, NDUFAF7 / Fold change vs veh, NDUFAF7 / RFU, SLC12A2 / Fold change vs veh, SLC12A2 / RFU, IBTK / Fold change vs veh, IBTK / RFU, ESF1 / Fold change vs veh, ESF1 / Fold change vs veh, TMEM50B / RFU, TAOK1 / Fold change vs veh, TAOK1 / RFU, ACBD3 / Fold change vs veh, ACBD3 / RFU, TMA16 / Fold change vs veh, TMA16 / RFU, RWDD3 / Fold change vs veh, RWDD3 / RFU, BCAT1 / Fold change vs veh, BCAT1 / RFU, EDEM3 / Fold change vs veh, EDEM3 / RFU, TMEM33 / Fold change vs veh, TMEM33 / RFU, WDR75 / Fold change vs veh, WDR75 / RFU, AHCTF1 / Fold change vs veh, AHCTF1 / RFU, TFRC / Fold change vs veh, TFRC / RFU, ZDHHC17 / Fold change vs veh, ZDHHC17 / RFU, NOM1 / Fold change vs veh, NOM1 / RFU, ARL8B / Fold change vs veh, ARL8B / RFU, ZBTB11 / Fold change vs veh, ZBTB11 / RFU, TAMM41 / Fold change vs veh, TAMM41 / RFU, KIAA1704 /// LOC100996395 / Fold change vs veh, KIAA1704 /// LOC100996395 / RFU, ING1 / Fold change vs veh, ING1 / RFU, TRMT61B / Fold change vs veh, TRMT61B / RFU, FUBP3 / Fold change vs veh, FUBP3 / RFU, TP53 / Fold change vs veh, TP53 / RFU, TNKS2 / Fold change vs veh, TNKS2 / RFU, ZFP14 / Fold change vs veh, ZFP14 / RFU, ACTR2 / Fold change vs veh, ACTR2 / RFU, PPP3R1 / Fold change vs veh, PPP3R1 / RFU, PIK3R1 / Fold change vs veh, PIK3R1 / RFU, HNRNPA1 / Fold change vs veh, HNRNPA1 / RFU, RNF170 / Fold change vs veh, RNF170 / RFU, ZNF28 / Fold change vs veh, ZNF28 / RFU, RNGTT / Fold change vs veh, RNGTT / RFU, OGT / Fold change vs veh, OGT / RFU, BRD1 / Fold change vs veh, BRD1 / RFU, MARS / Fold change vs veh, MARS / RFU, ZNF655 / Fold change vs veh, ZNF655 / RFU, FAHD1 / Fold change vs veh, FAHD1 / RFU, BDP1 / Fold change vs veh, BDP1 / RFU, LRRCC1 / Fold change vs veh, LRRCC1 / RFU, ARID1A / Fold change vs veh, ARID1A / RFU, ZNF146 / Fold change vs veh, ZNF146 / RFU, ZNF330 / Fold change vs veh, ZNF330 / RFU, GPN3 / Fold change vs veh, GPN3 / RFU, C9orf123 / Fold change vs veh, C9orf123 / RFU, N4BP2L2 / Fold change vs veh, N4BP2L2 / RFU, ARFIP1 / Fold change vs veh, ARFIP1 / RFU, FAM179B / Fold change vs veh, FAM179B / RFU, BCL10 / Fold change vs veh, BCL10 / RFU, UHRF1BP1L / Fold change vs veh, UHRF1BP1L / RFU, BET1 / Fold change vs veh, BET1 / RFU, CNOT2 / Fold change vs veh, CNOT2 / RFU, ZNF268 / Fold change vs veh, ZNF268 / Fold change vs veh, ZNF507 / RFU, DGCR2 / Fold change vs veh, DGCR2 / RFU, WDSUB1 / Fold change vs veh, WDSUB1 / Fold change vs veh, HSP90B1 /// MIR3652 / RFU, ADSS / Fold change vs veh, ADSS / RFU, GK / Fold change vs veh, GK / RFU, ZNF148 / Fold change vs veh, ZNF148 / RFU, TAF9 / Fold change vs veh, TAF9 / RFU, SLC1A5 / Fold change vs veh, SLC1A5 / RFU, SLMO2 / Fold change vs veh, SLMO2 / RFU, ABCC4 / Fold change vs veh, ABCC4 / RFU, LOC101060439 /// RAP1B / Fold change vs veh, LOC101060439 /// RAP1B / RFU, RFX7 / Fold change vs veh, RFX7 / RFU, GTPBP10 / Fold change vs veh, GTPBP10 / RFU, CNEP1R1 / Fold change vs veh, CNEP1R1 / RFU, BIVM-ERCC5 /// ERCC5 / Fold change vs veh, BIVM-ERCC5 /// ERCC5 / RFU, ILF3 / Fold change vs veh, ILF3 / RFU 11762660_at / Fold change /veh 11762660_at / RFU VCAN (11757783_s_at) / Fold change /veh VCAN (11757783_s_at) / RFU DDX43 (11728927_at) / Fold change /veh DDX43 (11728927_at) / RFU KRT8 (11758188_x_at) / Fold change /veh KRT8 (11758188_x_at) / RFU NKD1 (11759106_at) / Fold change /veh NKD1 (11759106_at) / RFU SRD5A1 (11742802_a_at) / Fold change /veh SRD5A1 (11742802_a_at) / RFU TPSAB1 /// TPSB2 (11721975_s_at) / Fold change /veh TPSAB1 /// TPSB2 (11721975_s_at) / RFU GSTM3 (11746129_a_at) / Fold change /veh GSTM3 (11746129_a_at) / RFU IL23R (11737362_x_at) / Fold change /veh IL23R (11737362_x_at) / RFU TMEM51 (11727254_a_at) / Fold change /veh TMEM51 (11727254_a_at) / RFU PIWIL2 (11732686_x_at) / Fold change /veh PIWIL2 (11732686_x_at) / RFU ORM1 (11744905_x_at) / Fold change /veh ORM1 (11744905_x_at) / RFU CCDC152 (11743942_at) / Fold change /veh CCDC152 (11743942_at) / RFU ECM1 (11717891_a_at) / Fold change /veh ECM1 (11717891_a_at) / RFU IL23R (11748794_a_at) / Fold change /veh IL23R (11748794_a_at) / RFU TNFAIP8L3 (11732012_x_at) / Fold change /veh TNFAIP8L3 (11732012_x_at) / RFU MBOAT4 (11741988_at) / Fold change /veh MBOAT4 (11741988_at) / RFU 11764193_at / Fold change /veh 11764193_at / RFU TMEM53 (11763286_at) / Fold change /veh TMEM53 (11763286_at) / RFU MAGEB2 (11727129_at) / Fold change /veh MAGEB2 (11727129_at) / RFU TMEM200A (11744735_a_at) / Fold change /veh TMEM200A (11744735_a_at) / RFU CCDC152 (11751479_a_at) / Fold change /veh CCDC152 (11751479_a_at) / RFU FAM211A (11726209_a_at) / Fold change /veh FAM211A (11726209_a_at) / RFU RGS16 (11746705_a_at) / Fold change /veh RGS16 (11746705_a_at) / RFU VCAN (11755009_s_at) / Fold change /veh VCAN (11755009_s_at) / RFU RHOB (11743442_s_at) / Fold change /veh RHOB (11743442_s_at) / RFU RGS16 (11720943_a_at) / Fold change /veh RGS16 (11720943_a_at) / RFU RGS16 (11720944_at) / Fold change /veh RGS16 (11720944_at) / RFU, VPS4B / Fold change vs veh, VPS4B / RFU, CREB1 / Fold change vs veh, CREB1 / RFU, DNAJC13 / Fold change vs veh, DNAJC13 / RFU, GNAQ / Fold change vs veh, GNAQ / RFU, CDK5R1 / Fold change vs veh, CDK5R1 / RFU, ZRANB3 / Fold change vs veh, ZRANB3 / RFU, CUL4A / Fold change vs veh, CUL4A / RFU, CCNY / Fold change vs veh, CCNY / RFU, UFL1 / Fold change vs veh, UFL1 / RFU, COG3 / Fold change vs veh, COG3 / RFU, DIAPH2 / Fold change vs veh, DIAPH2 / RFU, SKA2 / Fold change vs veh, SKA2 / RFU, AFF3 / Fold change vs veh, AFF3 / RFU, LMF1 / Fold change vs veh, LMF1 / RFU, IPO11 / Fold change vs veh, IPO11 / RFU, DFFB / Fold change vs veh, DFFB / RFU, FOXP1 / Fold change vs veh, FOXP1 / RFU, CARD8 / Fold change vs veh, CARD8 / RFU, STRN3 / Fold change vs veh, STRN3 / RFU, ADK / Fold change vs veh, ADK / RFU, RASSF2 / Fold change vs veh, RASSF2 / RFU, WIPF1 / Fold change vs veh, WIPF1 / RFU, LARP1B / Fold change vs veh, LARP1B / RFU, RASA1 / Fold change vs veh, RASA1 / RFU, RB1 / Fold change vs veh, RB1 / RFU, PPFIA1 / Fold change vs veh, PPFIA1 / RFU, MAT2A / Fold change vs veh, MAT2A / RFU, CCT5 / Fold change vs veh, CCT5 / RFU, WDR92 / Fold change vs veh, WDR92 / RFU, CUX1 / Fold change vs veh, CUX1 / RFU, TTC7A / Fold change vs veh, TTC7A / RFU, TMEM135 / Fold change vs veh, TMEM135 / RFU, DEPTOR / Fold change vs veh, DEPTOR / RFU, CPM / Fold change vs veh, CPM / RFU, DNAJB6 / Fold change vs veh, DNAJB6 / RFU, CACNA2D3 / Fold change vs veh, CACNA2D3 / RFU, DTX4 / Fold change vs veh, DTX4 / RFU, TFCP2 / Fold change vs veh, TFCP2 / RFU, GMCL1 /// GMCL1P1 / Fold change vs veh, GMCL1 /// GMCL1P1 / RFU, AEBP2 / Fold change vs veh, AEBP2 / RFU, SNHG1 /// SNORD22 /// SNORD25 /// SNORD26 /// SNORD27 /// SNORD28 /// SNORD29 /// SNORD31 / Fold change vs veh, SNHG1 /// SNORD22 /// SNORD25 /// SNORD26 /// SNORD27 /// SNORD28 /// SNORD29 /// SNORD31 / Fold change (Aza/veh), C12orf56 (ProbeSet 11735607_a_at) / Fold change (ACY-1035/veh), C12orf56 (ProbeSet 11735607_a_at) / Fold change (Aza/veh), FGFR1OP (ProbeSet 11751329_s_at) / Fold change (ACY-1035/veh), FGFR1OP (ProbeSet 11751329_s_at) / Fold change (Aza/veh), VPS36 (ProbeSet 11739960_a_at) / Fold change (ACY-1035/veh), VPS36 (ProbeSet 11739960_a_at) / RFU SYPL1 (11715823_x_at) / Fold change /veh SYPL1 (11715823_x_at) / RFU IGFBP7 (11715501_s_at) / Fold change /veh IGFBP7 (11715501_s_at) / RFU REEP3 (11722064_at) / Fold change /veh REEP3 (11722064_at) / RFU IGLL1 (11728026_x_at) / Fold change /veh IGLL1 (11728026_x_at): dose or concentration left out as unconfirmed
Conditions: MV-4-11 cells, 48 hours

`Nc1ccc(-c2cccs2)cc1NC(=O)c1ccc2c(c1)cc(C1CC1)n2CCN1CCOCC1` [ACY-1035] was tested, and the “RFU MYO3A (11730013_a_at)” value was 90.31 RFU.

Reference: article PMC5218480 (PLoS ONE, 2017)
